Measured values: US8383094B2, “Hepatitis C virus inhibitors” (Bristol-Myers Squibb Company, priority 2008, dated 2013)
Read-outs that look alike come from different tables or passages of the source.

Test system: HCV 1b genotype
Test: HCV Replicon assay (HCV-neo replicon cells, wild-type)
Type: cell-based
Details: HCV 1b genotype replicon, read-out: 1b EC50 (in μM or range)
[1] = Hepatitis C virus, range class A-D

Structure (SMILES)	EC50 [1]	further results
CC[C@@H](C(=O)N1CCC[C@H]1C(=O)Nc1ccc(C#Cc2ccc(NC(=O)[C@@H]3CCCN3C(=O)[C@H](CC)c3ccccc3)cc2)cc1)c1ccccc1 [VN7, (2S,2′S)-N,N′-(1,2-ethynediyldi-4,1-phenylene)bis(1-((2R)-2-phenylbutanoyl)-2-pyrrolidinecarboxamide)]	< 4.57 nM	–
CN(C)c1ccc(C#Cc2ccc(NC(=O)[C@@H]3CCCN3C(=O)[C@@H](c3ccccc3)N(C)C)cc2)cc1 [Example D60, (S)-1-((R)-2-(dimethylamino)-2-phenylacetyl)-N-(4-((4-(dimethylamino)phenyl)ethynyl)phenyl)pyrrolidine-2-carboxamide]	100 to 999 nM	–
CN(C)C1(C(=O)N2CCC[C@H]2C(=O)Nc2ccc(C#Cc3ccc(NC(=O)[C@@H]4CCCN4C(=O)C4(N(C)C)CCc5ccccc54)cc3)cc2)CCc2ccccc21 (stereo partly drawn) [VN42, (2S,2′S)-N,N′-(1,2-ethynediyldi-4,1-phenylene)bis(1-((1-(dimethylamino)-2,3-dihydro-1H-inden-1-yl)carbonyl)-2-pyrrolidinecarboxamide)]	–	EC50 (range class A-D): 4.57 to 99 nM
O=C(Nc1ccc(C#Cc2ccc(NC(=O)[C@@H]3CCCN3C(=O)/C=C/c3ccccc3)nc2)cn1)[C@@H]1CCCN1C(=O)/C=C/c1ccccc1 [Example D49, (2S,2′S)-N,N′-(1,2-ethynediyldi-5,2-pyridinediyl)bis(1-((2E)-3-phenyl-2-propenoyl)-2-pyrrolidinecarboxamide)]	100 to 999 nM	–
CC(C)(C)OC(=O)N[C@@H](C(=O)N1CCC[C@H]1C(=O)Nc1ccc(C#Cc2ccc(NC(=O)[C@@H]3CCCN3C(=O)[C@H](NC(=O)OC(C)(C)C)c3ccccc3)cc2)cc1)c1ccccc1 [VN23, Step a, di-tert-butyl(1,2-ethynediylbis(4,1-phenylenecarbamoyl(2S)-2,1-pyrrolidinediyl((1R)-2-oxo-1-phenyl-2,1-ethanediyl)))biscarbamate]	< 4.57 nM	–
O=C(Nc1ccc(C#Cc2ccc(NC(=O)[C@@H]3CCCN3C(=O)[C@@H](c3ccccc3)N3CCOCC3)cc2)cc1)[C@@H]1CCCN1C(=O)[C@@H](c1ccccc1)N1CCOCC1 [VN13, (2S,2′S)-N,N′-(1,2-ethynediyldi-4,1-phenylene)bis(1-((2R)-2-(4-morpholinyl)-2-phenylacetyl)-2-pyrrolidinecarboxamide)]	< 4.57 nM	–
O=C(Nc1ccc(C#Cc2ccc(NC(=O)[C@@H]3CCCN3C(=O)c3nc(Cl)cc4ccccc34)cc2)cc1)[C@@H]1CCCN1C(=O)CC1CC1 [Example D38, (2S)-1-((3-Chloro-1-isoquinolinyl)carbonyl)-N-(4-((4-((((2S)-1-(cyclopropylacetyl)-2-pyrrolidinyl)carbonyl)amino)phenyl)ethynyl)phenyl)-2-pyrrolidinecarboxamide]	4.57 to 99 nM	–
CN1Cc2ccccc2C1C(=O)N1CCC[C@H]1C(=O)Nc1ccc(C#Cc2ccc(NC(=O)[C@@H]3CCCN3C(=O)C3c4ccccc4CN3C)cc2)cc1 (stereo partly drawn) [VN40, (2S,2′S)-N,N′-(1,2-ethynediyldi-4,1-phenylene)bis(1-((2-methyl-2,3-dihydro-1H-isoindol-1-yl)carbonyl)-2-pyrrolidinecarboxamide)]	–	EC50 (range class A-D): 4.57 to 99 nM
O=C(Nc1ccc(C#Cc2ccc(NC(=O)[C@@H]3CCCN3C(=O)C3(c4ccccc4)CCCC3)cc2)cc1)[C@@H]1CCCN1C(=O)C1(c2ccccc2)CCCC1 [VN5, (2S,2′S)-N,N′-(1,2-ethynediyldi-4,1-phenylene)bis(1-((1-phenylcyclopentyl)carbonyl)-2-pyrrolidinecarboxamide)]	4.57 to 99 nM	–
CC(=O)N1CCC[C@H]1C(=O)Nc1ccc(C#Cc2ccc(NC(=O)[C@@H]3CCCN3C(=O)c3cccc4cccnc34)nc2)cc1 [Example D58, (2S)-1-Acetyl-N-(4-((6-((((2S)-1-(8-quinolinylcarbonyl)-2-pyrrolidinyl)carbonyl)amino)-3-pyridinyl)ethynyl)phenyl)-2-pyrrolidinecarboxamide]	–	EC50 (Hepatitis C virus): > 10000 nM
O=C(Nc1ccc(C#Cc2ccc(NC(=O)[C@@H]3CCCN3C(=O)Cc3ccccc3)cc2)cc1)C1CC1 [Example D15, N-(4-((4-((cyclopropylcarbonyl)amino)phenyl)ethynyl)phenyl)-1-(phenylacetyl)-L-prolinamide]	100 to 999 nM	–
CN1C[C@@H]2C[C@H]1CN2C(C(=O)N1CCC[C@H]1C(=O)Nc1ccc(C#Cc2ccc(NC(=O)[C@@H]3CCCN3C(=O)C(c3ccccc3)N3C[C@@H]4C[C@H]3CN4C)cc2)cc1)c1ccccc1 (stereo partly drawn) [VN18, (2S,2′S)-N,N′-(1,2-ethynediyldi-4,1-phenylene)bis(1-(((1S,4S)-5-methyl-2,5-diazabicyclo[2.2.1]hept-2-yl)(phenyl)acetyl)-2-pyrrolidinecarboxamide)]	–	EC50: 130 nM
CN(CC(N)=O)C(C(=O)N1CCC[C@H]1C(=O)Nc1ccc(C#Cc2ccc(NC(=O)[C@@H]3CCCN3C(=O)C(c3ccccc3)N(C)CC(N)=O)cc2)cc1)c1ccccc1 (single isomer, unassigned) [VN34]	< 4.57 nM	–
O=C(Nc1ccc(C#Cc2ccc(NC(=O)[C@@H]3CCCN3C(=O)Cc3ccccc3)cc2)cc1)[C@@H]1CCCN1C(=O)Cc1ccccc1 [Example D2, (2S,2′S)-N,N′-(1,2-ethynediyldi-4,1-phenylene)bis(1-(phenylacetyl)-2-pyrrolidinecarboxamide)]	< 4.57 nM	–
CCc1sc(Cl)nc1C(=O)N1CCC[C@H]1C(=O)Nc1ccc(C#Cc2ccc(NC(=O)[C@@H]3CCCN3C(=O)c3nc(Cl)sc3CC)cc2)cc1 [Example D36.1, (2S,2′S)-N,N′-(4,4′-(ethyne-1,2-diyl)bis(4,1-phenylene))bis(1-(2-chloro-5-ethylthiazole-4-carbonyl)pyrrolidine-2-carboxamide)]	–	EC50 (range class A-D): 100 to 999 nM
CCc1scnc1C(=O)N1CCC[C@H]1C(=O)Nc1ccc(C#Cc2ccc(NC(=O)[C@@H]3CCCN3C(=O)c3ncsc3CC)cc2)cc1 [Example D36.2, (2S,2′S)-N,N′-(4,4′-(ethyne-1,2-diyl)bis(4,1-phenylene))bis(1-(5-ethylthiazole-4-carbonyl)pyrrolidine-2-carboxamide)]	–	EC50 (range class A-D): 4.57 to 99 nM
Cn1c(C(=O)N2CCC[C@H]2C(=O)Nc2ccc(C#Cc3ccc(NC(=O)[C@@H]4CCCN4C(=O)c4cc5ccccc5n4C)cc3)cc2)cc2ccccc21 [Example D30, (2S,2′S)-N,N′-(1,2-ethynediyldi-4,1-phenylene)bis(1-((1-methyl-1H-indol-2-yl)carbonyl)-2-pyrrolidinecarboxamide)]	–	EC50 (Hepatitis C virus): 1210 nM
O=C(Nc1ccc(C#Cc2ccc(NC(=O)[C@@H]3CCCN3C(=O)Cc3ccccc3)cc2)cc1)[C@H]1CCCO1 [Example D17, 1-(Phenylacetyl)-N-(4-((4-(((2R)-tetrahydro-2-furanylcarbonyl)amino)phenyl)ethynyl)phenyl)-L-prolinamide]	100 to 999 nM	–
O=C(Nc1ccc(C#Cc2ccc(NC(=O)[C@@H]3CCCN3C(=O)OCc3ccccc3)cc2)cc1)[C@@H]1CCCN1C(=O)OCc1ccccc1 [Example D1, Dibenzyl(2S,2′S)-2,2′-(1,2-ethynediylbis(4,1-phenylenecarbamoyl))di(1-pyrrolidinecarboxylate)]	4.57 to 99 nM	–
CCN(C)C(C(=O)N1CCC[C@H]1C(=O)Nc1ccc(C#Cc2ccc(NC(=O)[C@@H]3CCCN3C(=O)C(c3ccccc3)N(C)CC)cc2)cc1)c1ccccc1 (stereo partly drawn) [VN47, (2S,2′S)-N,N′-(1,2-ethynediyldi-4,1-phenylene)bis(1-((ethyl(methyl)amino)(phenyl)acetyl)-2-pyrrolidinecarboxamide)]	4.57 to 99 nM	–
CCOc1cccc2c(C(=O)N3CCC[C@H]3C(=O)Nc3ccc(C#Cc4ccc(NC(=O)[C@@H]5CCCN5C(=O)c5nc(Cl)cc6c(OCC)cccc56)cc4)cc3)nc(Cl)cc12 [Example D34, (2S,2′S)-N,N′-(1,2-ethynediyldi-4,1-phenylene)bis(1-((3-chloro-5-ethoxy-1-isoquinolinyl)carbonyl)-2-pyrrolidinecarboxamide)]	4.57 to 99 nM	–
CN(C)[C@@H](Cc1ccccc1)C(=O)N1CCC[C@H]1C(=O)Nc1ccc(C#Cc2ccc(NC(=O)[C@@H]3CCCN3C(=O)[C@H](Cc3ccccc3)N(C)C)cc2)cc1 [VN29, (2S,2′S)-N,N′-(1,2-ethynediyldi-4,1-phenylene)bis(1-((2S)-2-(dimethylamino)-3-phenylpropanoyl)-2-pyrrolidinecarboxamide)]	100 to 999 nM	–
CN1CCc2ccccc2[C@@H]1C(=O)N1CCC[C@H]1C(=O)Nc1ccc(C#Cc2ccc(NC(=O)[C@@H]3CCCN3C(=O)[C@H]3c4ccccc4CCN3C)cc2)cc1 [VN32, (R,2S,2′S)-N,N′-(4,4′-(ethyne-1,2-diyl)bis(4,1-phenylene))bis(1-((R)-2-methyl-1,2,3,4-tetrahydroisoquinoline-1-carbonyl)pyrrolidine-2-carboxamide)]	100 to 999 nM	–
O=C(CC1CC1)Nc1ccc(C#Cc2ccc(NC(=O)[C@@H]3CCCN3C(=O)OCc3ccccc3)cc2)cc1 [Example D19, Benzyl (2S)-2-((4-((4-((cyclopropylacetyl)amino)phenyl)ethynyl)phenyl)carbamoyl)-1-pyrrolidinecarboxylate]	100 to 999 nM	–
O=C(Nc1ccc(C#Cc2ccc(NC(=O)[C@@H]3CCCN3C(=O)C(c3ccccc3)N3CC[C@H](O)C3)cc2)cc1)[C@@H]1CCCN1C(=O)C(c1ccccc1)N1CC[C@H](O)C1 (stereo partly drawn) [VN51, (2S,2′S)-N,N′-(1,2-ethynediyldi-4,1-phenylene)bis(1-(((3S)-3-hydroxy-1-pyrrolidinyl)(phenyl)acetyl)-2-pyrrolidinecarboxamide)]	4.57 to 99 nM	–
O=C(Nc1ccc(C#Cc2ccc(NC(=O)C3CCN(C(=O)OCc4ccccc4)C3)cc2)cc1)C1CCN(C(=O)OCc2ccccc2)C1 (stereo not drawn) [Example D5, Dibenzyl3,3′-(1,2-ethynediylbis(4,1-phenylenecarbamoyl))di(1-pyrrolidinecarboxylate)]	1000 to 10000 nM	–
O=CN[C@@H](C(=O)N1CCC[C@H]1C(=O)Nc1ccc(C#Cc2ccc(NC(=O)[C@@H]3CCCN3C(=O)[C@H](NC=O)c3ccccc3)cc2)cc1)c1ccccc1 [VN11, (2S,2′S)-N,N′-(1,2-ethynediyldi-4,1-phenylene)bis(1-((2R)-2-formamido-2-phenylacetyl)-2-pyrrolidinecarboxamide)]	–	EC50 (Hepatitis C virus): 0.01 nM
